Measurements reported in patent US8188096B2, “Protein kinase targeted therapeutics” (Northwestern University, priority 2006, dated 2012).

Legend:
[1] = liver histological toxicity screen after chronic administration; assay type: in vivo; conditions: after chronic administration (FIG. 4B)
[2] = molecular target: CK1δ (Homo sapiens, UniProt P48730); experiment: in vitro phosphorylation of a standard protein or peptide substrate by purified kinase; assay type: biochemical; conditions: 100 mM ATP, increasing concentrations of compound, percent of maximal enzyme activity (FIG. 2)
CK1δ, sequence (P48730 whole entry): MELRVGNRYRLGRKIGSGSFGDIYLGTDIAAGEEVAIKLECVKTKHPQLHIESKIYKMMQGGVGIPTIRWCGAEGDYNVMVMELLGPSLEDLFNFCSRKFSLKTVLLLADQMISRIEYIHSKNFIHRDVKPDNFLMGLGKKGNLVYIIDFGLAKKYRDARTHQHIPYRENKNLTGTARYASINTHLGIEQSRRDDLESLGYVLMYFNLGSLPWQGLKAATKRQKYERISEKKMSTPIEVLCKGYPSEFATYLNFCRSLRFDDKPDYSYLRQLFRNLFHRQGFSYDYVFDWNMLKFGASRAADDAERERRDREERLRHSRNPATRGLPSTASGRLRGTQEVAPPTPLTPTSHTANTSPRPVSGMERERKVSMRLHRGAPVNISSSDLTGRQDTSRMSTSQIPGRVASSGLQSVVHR

[3] = plasma levels after oral administration (oral bioavailability); assay type: in vivo; conditions: plasma levels after oral administration (FIG. 4A)
[4] = tested on: LPS-induced serum cytokine levels; experiment: LPS-induced serum cytokine levels in acute inflammation mouse model (ELISA); assay type: in vivo; conditions: 25 mg/kg oral gavage, LPS 10 mg/kg i.p. 30 minutes later, serum after 6 hr, ELISA (FIG. 3)
[5] = metabolic stability in human liver microsome screen; assay type: in vitro ADME; conditions: human liver microsome screen (FIG. 4C)

In the case of `c1ccc(-c2nnc(N3CCN(c4ncccn4)CC3)cc2-c2ccncc2)cc1` [MW01-2-069aSRM], the liver histological toxicity [1] is reported as “no liver histological toxicity”, the “inhibition of CK1δ enzyme activity” value [2] is reported as “inhibit in vitro p38 MAPK and CK1δ enzyme activity in a concentration dependent manner” and the oral bioavailability [3] is reported as “oral bioavailability, safety and metabolic stability is demonstrated”. For the same molecule, the “inhibition of LPS-induced serum cytokine levels” value [4] was “inhibit LPS-induced serum cytokine levels in vivo” and the metabolic stability [5] was “metabolic stability is demonstrated”.
